The record followed here is patent publication US11873295B2, “Allosteric chromenone inhibitors of phosphoinositide 3-kinase (PI3K) for the treatment of disease” (Petra Pharma Corporation, priority 2021, dated 2024).

Broadly, the IC50 is the concentration at which inhibition is half-maximal. A low value points to greater potency.

The target in experiment [1] is T1, human full length PIK3KA H1047R mutant (p110α/p85α complex) (Homo sapiens, UniProt P42336, H1047R).
T1 construct: Recombinant, catalytically active human full length PIK3KA Wild-type and H1047R mutant were purchased as 1:1 complex; 6xHis (N); purchased EMD Millipore Sigma 14-792M
T1 sequence (P42336 whole entry H1047R): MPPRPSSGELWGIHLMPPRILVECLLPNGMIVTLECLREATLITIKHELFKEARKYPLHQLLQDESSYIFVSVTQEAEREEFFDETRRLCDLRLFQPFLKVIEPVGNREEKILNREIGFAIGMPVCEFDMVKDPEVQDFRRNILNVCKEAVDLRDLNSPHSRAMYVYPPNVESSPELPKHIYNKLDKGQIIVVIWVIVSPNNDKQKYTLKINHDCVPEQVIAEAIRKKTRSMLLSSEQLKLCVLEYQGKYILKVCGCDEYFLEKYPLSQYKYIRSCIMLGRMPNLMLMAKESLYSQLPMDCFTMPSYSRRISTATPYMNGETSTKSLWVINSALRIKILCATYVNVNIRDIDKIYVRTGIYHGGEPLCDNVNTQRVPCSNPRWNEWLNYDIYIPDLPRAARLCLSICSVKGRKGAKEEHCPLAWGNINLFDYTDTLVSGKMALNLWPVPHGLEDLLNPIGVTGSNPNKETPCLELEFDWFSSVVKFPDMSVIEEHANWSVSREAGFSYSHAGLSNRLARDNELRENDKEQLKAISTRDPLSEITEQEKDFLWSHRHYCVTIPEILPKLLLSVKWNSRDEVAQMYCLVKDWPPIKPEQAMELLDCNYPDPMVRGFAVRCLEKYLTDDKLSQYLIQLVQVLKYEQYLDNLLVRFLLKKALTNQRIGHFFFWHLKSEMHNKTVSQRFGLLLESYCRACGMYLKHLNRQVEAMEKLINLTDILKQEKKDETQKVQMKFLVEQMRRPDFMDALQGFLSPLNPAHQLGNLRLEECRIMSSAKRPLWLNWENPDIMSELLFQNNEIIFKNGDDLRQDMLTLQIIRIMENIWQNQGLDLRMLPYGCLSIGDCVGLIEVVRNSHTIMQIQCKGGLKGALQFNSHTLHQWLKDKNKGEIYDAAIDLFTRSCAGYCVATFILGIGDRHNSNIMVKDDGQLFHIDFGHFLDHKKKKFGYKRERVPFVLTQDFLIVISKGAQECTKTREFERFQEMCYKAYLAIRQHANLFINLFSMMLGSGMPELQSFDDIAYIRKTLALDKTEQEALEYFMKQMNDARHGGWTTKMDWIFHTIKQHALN
T1 sequence (P27986 whole entry partner): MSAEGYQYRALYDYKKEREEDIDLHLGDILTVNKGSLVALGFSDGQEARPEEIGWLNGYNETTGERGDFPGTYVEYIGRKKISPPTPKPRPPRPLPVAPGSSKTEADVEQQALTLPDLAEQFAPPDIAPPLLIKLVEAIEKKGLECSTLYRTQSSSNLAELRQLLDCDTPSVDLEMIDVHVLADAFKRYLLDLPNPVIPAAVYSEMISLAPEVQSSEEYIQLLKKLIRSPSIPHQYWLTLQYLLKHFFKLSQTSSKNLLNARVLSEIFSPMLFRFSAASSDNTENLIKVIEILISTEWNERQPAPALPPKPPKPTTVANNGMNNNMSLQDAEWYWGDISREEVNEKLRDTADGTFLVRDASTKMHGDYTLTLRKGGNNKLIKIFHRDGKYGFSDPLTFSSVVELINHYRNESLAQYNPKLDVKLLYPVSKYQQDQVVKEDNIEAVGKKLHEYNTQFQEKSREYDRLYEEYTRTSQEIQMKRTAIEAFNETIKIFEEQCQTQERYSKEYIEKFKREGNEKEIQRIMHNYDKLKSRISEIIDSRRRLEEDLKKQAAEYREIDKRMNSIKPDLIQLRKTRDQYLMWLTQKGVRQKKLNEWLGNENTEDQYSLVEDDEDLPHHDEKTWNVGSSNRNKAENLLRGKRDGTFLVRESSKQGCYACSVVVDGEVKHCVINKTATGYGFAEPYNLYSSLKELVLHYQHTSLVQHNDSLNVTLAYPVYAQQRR
The experiment can be described thus: PI3K-alpha kinase (PIK3CA) biochemical activity, H1047R mutant, ADP-Glo. As to conditions: PI3K-α (PIK3CA) biochemical, H1047R mutant, Soy PI lipid substrate. In short, it runs like this:
(§1)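 Full-length His-p110α/p85α complex, wild-type or H1047R, 1–5 nM, preincubated with compound 1 h at 27 °C in HEPES pH 7.4, 25 mM MgCl2, 0.01% Triton X-100, 1% DMSO. Reaction with 20 μM ATP and 50 μM PIP2diC8 or soy PI at 27 °C to ~10% ATP conversion; ADP-Glo luminescence. IC50 from 10-point four-parameter logistic fit.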

Experiment [2] addresses T2, human full length PIK3KA Wild-type (p110α/p85α complex) (Homo sapiens, UniProt P42336).
T2 construct: Recombinant, catalytically active human full length PIK3KA Wild-type and H1047R mutant were purchased as 1:1 complex; 6xHis (N); purchased EMD Millipore Sigma 14-602M
The experiment can be described thus: PI3K-alpha kinase (PIK3CA) biochemical activity, wild-type, ADP-Glo. To be noted: PI3K-α (PIK3CA) biochemical, Soy PI lipid substrate. The method, boiled down:
as §1
On the technique in general: In ADP-Glo the light output rises with the ADP produced.

Experiment [3] has as its system PI3K-α (PIK3CA) in MDA-MB-453 cells. The experiment can be described thus: PI3K-alpha kinase (PIK3CA) activity in vitro cell based assay, MDA-MB-453 cells, AlphaLisa SureFire. As to conditions: 0% FBS, 3 hours treatment, relative IC50. In short, it runs like this: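 MDA-MB-453 cells in serum-free MEM with 1 μg/mL insulin treated 3 h with 10-point 1:3 compound dilutions, 0.3% DMSO. Lysates read by AlphaLisa SureFire; percent inhibition relative to DMSO (max) and 1 μM GDC-0032 (min), duplicate means fitted to 4-parameter logistic for relative IC50.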
(Alpha assays give light when donor and acceptor beads are brought close together.)

As to `C[C@@H](Nc1ccc(Cl)nc1C(=O)O)c1cc(C(F)(F)F)cc2c(=O)cc(-c3ccc(F)cc3F)oc12` [Example 81, 6-Chloro-3-[[(1R)-1-[2-(2,4-difluorophenyl)-4-oxo-6-(trifluoromethyl)-chromen-8-yl]ethyl]amino]pyridine-2-carboxylic acid], the IC50 in experiment [1] is under 500 nM; in experiment [2], 1000 to 5000 nM; in experiment [3] (Homo sapiens, MDA-MB-453, 3 h) it was under 50 nM.

For the molecule `COC(=O)c1ccc(-c2oc3c([C@@H](C)Nc4ccccc4C(=O)O)cc(C)cc3c(=O)c2C)cc1` [Example 149, 2-[[(1R)-1-[2-(4-Methoxycarbonylphenyl)-3,6-dimethyl-4-oxo-chromen-8-yl]ethyl]amino]benzoic acid], the IC50 in experiment [1] was under 500 nM; in experiment [2] it was 1000 to 5000 nM; in experiment [3] (Homo sapiens, MDA-MB-453, 3 h), under 50 nM.

In the case of `Cc1cc([C@@H](C)Nc2ccccc2C(=O)O)c2oc(-c3ccc(C#N)cc3)c(C)c(=O)c2c1` [Example 31, 2-[[(1R)-1-[2-(4-Cyanophenyl)-3,6-dimethyl-4-oxo-chromen-8-yl]ethyl]amino]benzoic acid], the IC50 in experiment [1] was under 500 nM; in experiment [2], 1000 to 5000 nM; in experiment [3] (Homo sapiens, MDA-MB-453, 3 h), under 50 nM.

With `Cc1cc([C@@H](C)Nc2ccc(Cl)nc2C(=O)O)c2oc(-c3cccc(C#N)c3)c(C)c(=O)c2c1` [Example 121, 6-Chloro-3-[[(1R)-1-[2-(3-cyanophenyl)-3,6-dimethyl-4-oxo-chromen-8-yl]ethyl]amino]pyridine-2-carboxylic acid], the IC50 in experiment [1] was under 500 nM; in experiment [2], 500 to 1000 nM; in experiment [3], under 50 nM.

As to `Cc1cc([C@@H](C)Nc2ccccc2C(=O)O)c2oc(-c3ccc(F)cc3F)c(C)c(=O)c2c1` [Example 75, 2-[[(1R)-1-[2-(2,4-Difluorophenyl)-3,6-dimethyl-4-oxo-chromen-8-yl]ethyl]amino]benzoic acid], the IC50 in experiment [1] was under 500 nM; in experiment [2] it was 1000 to 5000 nM; in experiment [3] (Homo sapiens, MDA-MB-453, 3 h) it was under 50 nM.

Consider `COc1ccc(N[C@H](C)c2cc(C)cc3c(=O)c(C)c(-c4ccccc4)oc23)c(C(=O)O)n1` [Example 135, 6-Methoxy-3-[[(1R)-1-(3,6-dimethyl-4-oxo-2-phenyl-chromen-8-yl)ethyl]amino]pyridine-2-carboxylic acid 2,2,2-trifluoroacetic acid], for which the IC50 in experiment [1] was under 500 nM; in experiment [2], 500 to 1000 nM; in experiment [3] (Homo sapiens, MDA-MB-453, 3 h), under 50 nM.

On to `Cc1cc([C@@H](C)Nc2ccccc2C(=O)O)c2oc(-c3ccc(C(C)(C)C#N)cc3)cc(=O)c2c1` [Example 25], for which the IC50 in experiment [1] was under 500 nM; in experiment [2] it was 1000 to 5000 nM; in experiment [3] (Homo sapiens, MDA-MB-453, 3 h), 50 to 100 nM.

Consider `Cc1cc([C@@H](C)Nc2ccc(Cl)cc2C(=O)O)c2oc(-c3ccccc3F)c(C)c(=O)c2c1` [Example 147, 5-Chloro-2-[[(1R)-1-[2-(2-fluorophenyl)-3,6-dimethyl-4-oxo-chromen-8-yl]ethyl]amino]benzoic acid], for which the IC50 in experiment [1] was 500 to 1000 nM; in experiment [2], 1000 to 5000 nM; in experiment [3] (Homo sapiens, MDA-MB-453, 3 h), under 50 nM.

With `Cc1cc([C@@H](C)Nc2cccnc2C(=O)O)c2oc(-c3cccc(C#N)c3)c(C)c(=O)c2c1` [Example 125, 3-[[(1R)-1-[2-(3-Cyanophenyl)-3,6-dimethyl-4-oxo-chromen-8-yl]ethyl]amino]pyridine-2-carboxylic acid], the IC50 in experiment [1] lay in the range of 500 to 1000 nM; in experiment [2], 5000 to 10000 nM; in experiment [3] (Homo sapiens, MDA-MB-453, 3 h), 50 to 100 nM.

As to `Cc1cc([C@@H](C)Nc2ccccc2C(=O)O)c2oc(-c3cccc(C(F)F)c3)c(C)c(=O)c2c1` [Example 73, 2-[[(1R)-1-[2-[3-(Difluoromethyl)phenyl]-3,6-dimethyl-4-oxo-chromen-8-yl]ethyl]amino]benzoic acid 2,2,2-trifluoroacetic acid], the IC50 is under 500 nM in experiment [1]; over 10000 nM in experiment [2]; under 50 nM in experiment [3] (Homo sapiens, MDA-MB-453, 3 h).

Regarding `Cc1c(-c2ccc(F)cc2F)oc2c([C@@H](C)Nc3ccc(Cl)nc3C(=O)O)cc(C(F)(F)F)cc2c1=O` [Example 99, 6-Chloro-3-[[(1R)-1-[2-(2,4-difluorophenyl)-3-methyl-4-oxo-6-(trifluoromethyl)-chromen-8-yl]ethyl]amino]pyridine-2-carboxylic acid], the IC50 in experiment [1] was under 500 nM; in experiment [2], 500 to 1000 nM; in experiment [3] (Homo sapiens, MDA-MB-453, 3 h), under 50 nM.

Turning to `Cc1cc([C@@H](C)Nc2ccc(C(F)(F)F)cc2C(=O)O)c2oc(-c3cccc(C#N)c3)c(C)c(=O)c2c1` [Example 128, 2-[[(1R)-1-[2-(3-Cyanophenyl)-3,6-dimethyl-4-oxo-chromen-8-yl]ethyl]amino]-5-(trifluoromethyl)benzoic acid], the IC50 was under 500 nM in experiment [1]; 1000 to 5000 nM in experiment [2]; 50 to 100 nM in experiment [3] (Homo sapiens, MDA-MB-453, 3 h).

`Cc1cc([C@@H](C)Nc2ccccc2C(=O)O)c2oc(-c3ccc(-c4ccn[nH]4)cc3)c(C)c(=O)c2c1` [Example 168, 2-[[(1R)-1-[3,6-Dimethyl-4-oxo-2-[4-(1H-pyrazol-5-yl)phenyl]chromen-8-yl]ethyl]amino]benzoic acid]: the IC50 in experiment [1] was under 500 nM; in experiment [2] it was 500 to 1000 nM; in experiment [3] (Homo sapiens, MDA-MB-453, 3 h) it was under 50 nM.

In the case of `Cc1cc([C@@H](C)Nc2ccc(F)cc2C(=O)O)c2oc(-c3cccc(C#N)c3)c(C)c(=O)c2c1` [Example 129, 2-[[(1R)-1-[2-(3-Cyanophenyl)-3,6-dimethyl-4-oxo-chromen-8-yl]ethyl]amino]-5-fluoro-benzoic acid], the IC50 was under 500 nM in experiment [1]; under 500 nM in experiment [2]; under 50 nM in experiment [3] (Homo sapiens, MDA-MB-453, 3 h).

As to `Cc1cc([C@@H](C)Nc2ccc(C(F)(F)F)nc2C(=O)O)c2oc(-c3ccccc3)c(C)c(=O)c2c1` [Example 26, 3-[[(1R)-1-(3,6-Dimethyl-4-oxo-2-phenyl-chromen-8-yl)ethyl]amino]-6-(trifluoromethyl)-pyridine-2-carboxylic acid], the concentration for half-maximal inhibition (IC50) in experiment [1] was under 500 nM; in experiment [2], 500 to 1000 nM; in experiment [3] (Homo sapiens, MDA-MB-453, 3 h), 50 to 100 nM.

`Cc1cc([C@@H](C)Nc2ccccc2C(=O)O)c2oc(-c3ccccc3)c(C)c(=O)c2c1` [Example 21, 2-[[(1R)-1-(3,6-Dimethyl-4-oxo-2-phenyl-chromen-8-yl)ethyl]amino]benzoic acid]: the IC50 in experiment [1] was under 500 nM; in experiment [2] it was 1000 to 5000 nM; in experiment [3] (Homo sapiens, MDA-MB-453, 3 h), under 50 nM.

Consider `Cc1cc([C@@H](C)Nc2ccc(Cl)cc2C(=O)O)c2oc(-c3cccc(F)c3)c(C)c(=O)c2c1` [Example 145, 5-Chloro-2-[[(1R)-1-[2-(3-fluorophenyl)-3,6-dimethyl-4-oxo-chromen-8-yl]ethyl]amino]benzoic acid], for which the half-maximal inhibitory concentration (IC50) in experiment [1] is under 500 nM; in experiment [2], 1000 to 5000 nM; in experiment [3] (Homo sapiens, MDA-MB-453, 3 h), under 50 nM.

For the molecule `Cc1c(-c2ccccc2)oc2c([C@@H](C)Nc3ccc(Cl)nc3C(=O)O)cc(C(F)(F)F)cc2c1=O` [Example 91, 6-Chloro-3-[[(1R)-1-[3-methyl-4-oxo-2-phenyl-6-(trifluoromethyl)-chromen-8-yl]ethyl]amino]pyridine-2-carboxylic acid], the IC50 in experiment [1] is under 500 nM; in experiment [2], 1000 to 5000 nM; in experiment [3] (Homo sapiens, MDA-MB-453, 3 h) it was under 50 nM.

For the molecule `Cc1cc(C(C)Nc2ccccc2C(=O)O)c2oc(-c3ccccc3)c(C#N)c(=O)c2c1` (single isomer, unassigned; isomer 2) [Example 62, 2-[1-(3-Cyano-6-methyl-4-oxo-2-phenyl-chromen-8-yl)ethylamino]benzoic acid, Isomer 2], the IC50 in experiment [1] was under 500 nM; in experiment [2], under 500 nM; in experiment [3] (Homo sapiens, MDA-MB-453, 3 h) it was under 50 nM.
